Measured values published in article PMC6470675, “Design and Synthesis of New Quinoxaline Derivatives as Anticancer Agents and Apoptotic Inducers” (Molecules, 2019).

Experiments:
[1] = molecular target: T1, VEGFR-2 (Homo sapiens, UniProt P35968); details: cited from earlier work
T1 construct: purchased Bio Science Corporation (BPS), San Diego, CA, USA

[2] = system: HCT116 human colon carcinoma cell line; assay: In vitro cell proliferation (MTT) assay, HCT116; assay type: cell-based; details: Homo sapiens, HCT-116; MTT, 72 h exposure
Experimental: (§1) The targeted compounds were tested for their in-vitro anti-cancer activity against three tumor cell lines (HCT116, Hep G2 and MCF-7). Doxorubicin was included in the experiments as a reference cytotoxic compound. Exponentially growing cells from different cancer cell lines were trypsinized, counted and seeded at the appropriate densities into 96-well microtiter plates. Cells then were incubated in a humidified atmosphere at 37 °C for 24 h. Then, cells were exposed to different concentrations of compounds for 72 h. Then the viability of treated cells was determined using MTT technique (described latter).
(§2) Three cancer cell lines including human colon carcinoma (HCT116), human breast adenocarcinoma (MCF-7) and human hepatocellular carcinoma (Hep G2), were purchased from American Type Cell Culture Collection (ATCC, Manassas, VA, USA) and grown on the appropriate growth medium Dulbecco’s modified Eagle’s medium (DMEM) or Roswell Park Memorial Institute medium (RPMI 1640) supplemented with […] of streptomycin, 100 units/mL of penicillin and 10% of heat-inactivated fetal bovine serum in a humidified, 5% (v/v) CO2 atmosphere at 37 °C [34]. Cytotoxicity assay by 3-[4,5-dimethylthiazole-2-yl]-2,5-diphenyltetrazolium bromide (MTT).
(§3) Exponentially growing cells from different cancer cell lines were trypsinized, counted and seeded at the appropriate densities (2000–1000 cells/0.33 cm^2 well) into 96-well microtiter plates. Cells then were incubated in a humidified atmosphere at 37 °C for 24 h. Then, cells were exposed to different concentrations of compounds (0.1, 10, 100, 1000 µM) for 72 h. Then the viability of treated cells was determined using MTT technique as follow. Media were removed; cells were incubated with 200 μL of 5% MTT solution/well (Sigma Aldrich, Darmstadt, Germany) and were allowed to metabolize the dye into a colored-insoluble formazan crystal for 2 h. The remaining MTT solution were discarded from the wells and the formazan crystals were dissolved in 200 µl/well acidified isopropanol for 30 min, covered with aluminum foil and with continuous shaking using a MaxQ 2000 plate shaker (Thermo Fisher Scientific Inc, Waltham, MA, USA) at room temperature. Absorbance were measured at 570 nm using a Stat Fax^R 4200 plate reader (Awareness Technology, Inc., Awareness Technology, FL, USA). The cell viability was expressed as percentage of control and the concentration that induces 50% of maximum inhibition of cell proliferation (IC50) were determined using Graph Pad Prism version 5 software (Graph Pad Software Inc, San Diego, CA, USA) (1,2).

[3] = system: Hep G2 human hepatocellular carcinoma cell line; assay: In vitro cell proliferation (MTT) assay, Hep G2; assay type: cell-based
Experimental: as §1, §2, §3

[4] = system: MCF-7 human breast adenocarcinoma cell line; assay: In vitro cell proliferation (MTT) assay, MCF-7; assay type: cell-based; details: Homo sapiens, MCF7; MTT, 72 h exposure
Experimental: as §1, §2, §3

[5] = molecular target: T1, VEGFR-2; assay: In vitro VEGFR-2 inhibition assay (Kinase-Glo Plus luminescence); assay type: biochemical
Experimental: In an attempt to investigate the possible mechanism of action of the synthesized compounds based on structural similarity with sorafenib, all of them were tested for VEGFR-2 inhibitory activity at Bio Science Corporation (BPS, San Diego, CA, USA). The assay was performed using the Kinase-Glo Plus luminescence kinase assay kit (Promega, San Diego, CA, USA). It measures kinase activity by quantitating the amount of ATP remaining in solution following a kinase reaction. […].
The in-vitro enzyme inhibition determination for the synthesized compounds was carried out at Bio Science Corporation (BPS)-San Diego, CA, USA. The assay was performed using Kinase-Glo Plus luminescence kinase assay kit (Promega), where the kinase activity was measured by quantitating the amount of ATP remaining in solution following a kinase reaction. The luminescent signal from the assay is correlated with the amount of ATP present and is inversely correlated with the amount of kinase activity. Our compounds were diluted with 10% DMSO and 5 µL of the dilution was added to a 50 µL reaction so that the final concentration of DMSO is 1% in all of reactions. All of the enzymatic reactions were conducted at 30 °C for 40 min. The 50 µL reaction mixture contains 40 mM Tris, pH 7.4, 10 mM MgCl2, 0.1 mg/mL BSA, 1 mM DTT, 10 µM ATP, Kinase substrate and the enzyme. After the enzymatic reaction, 50 µL of Kinase-Glo Plus Luminescence kinase assay solution (Promega San Diego, CA, USA) was added to each reaction and incubate the plate for 5 min at room temperature. Luminescence signal was measured using a BioTek Synergy 2 microplate reader.
Kinase activity assays were performed in duplicate at each concentration. The luminescence data were analyzed using the computer software, Graphpad Prism. The difference between luminescence intensities in the absence of Kinase (Lut) and in the presence of Kinase (Luc) was defined as 100% activity (Lut − Luc). Using luminescence signal (Lu) in the presence of the compound, % activity was calculated as:% activity = {(Lut − Lu)(Lut − Luc)} × 100% where Lu = the luminescence intensity in the presence of the compound.

[6] = system: HCT116 cells; assay: Cell cycle analysis by flow cytometry; assay type: cell-based, human; details: 2.5 µM
Experimental: The effect of compound VIIIc on the normal cell cycle progression was characterized using flow cytometric analysis of the DNA ploidy in HCT116 cells Figure 3. […] The observed increase in pre-G cell population may imply DNA fragmentation and apoptosis as a potential mechanism for VIIIc-induced cancer cell death.
HCT116 cells at a density of 4 × 10^6 cell/T 75 flask were exposed to 1-(4-Chlorophenyl)-3-(4-((3-methylquinoxalin-2-yl)amino)phenyl)urea VIIIc at its IC50 concentration for 24 and 48 h. The cells then were collected by trypsinization, washed with phosphate buffered saline (PBS), and fixed in ice-cold absolute alcohol. Thereafter, cells were stained, using Cycle test ^TM Plus DNA Reagent Kit (BD Biosciences, San Jose, CA, USA), according to the manufacturer’s instructions. Cell cycle distribution was determined using a FACS Calibur flow cytometer (BD Biosciences).

[7] = system: HCT116 cells; assay: Annexin V-FITC/PI apoptosis determination; assay type: cell-based, human; details: IC50 (2.5 µM), 24 h and 48 h, compared to DMSO treated cells
From the text: For further investigation of the ability of compound VIIIc to induce apoptosis, an Annexin V (conjugated to FITC) apoptosis detection kit was employed. This assay detects phosphatidylserine (PS) expressed on the surface of apoptotic cells and fluoresces green after interacting with the labeled annexin V. During early apoptosis, membrane asymmetry is lost, and PS translocates from the cytoplasmic side of the membrane to the external leaflet. Propidium iodide (PI), the counterstain used in this assay, has the ability to cross only compromised membranes to intercalate into the DNA. Therefore, PI is used to detect the late stages of apoptosis by presence of red fluorescence.
Apoptosis was determined by staining cells with Annexin V–fluorescein isothiocyanate (FITC) and counterstaining with propidium iodide (PI) using the Annexin V–FITC/PI apoptosis detection kit (BD PharMingen, San Diego, CA, USA) according to the manufacturer’s instructions. Briefly, 4 × 10^6 cell/T 75 flask were exposed to compound VIIIc at its IC50 concentration for 24 and 48 h. The cells then were collected by trypsinization and 0.5 × 10^6 cells were washed twice with phosphate-buffered saline (PBS) and stained with 5 μL Annexin V–FITC and 5 μL PI in 1× binding buffer (BD PharMingen) for 15 min at room temperature in the dark. Analyses were performed using FACS Calibur flow cytometer (BD Biosciences).

[8] = system: three tumor cell lines (HCT116, Hep G2 and MCF-7); assay: In vitro anti-cancer activity stated for the tested cell lines together; assay type: cell-based, human; details: HCT116, Hep G2 and MCF-7 together
Experimental: as §1, §2
Exponentially growing cells from different cancer cell lines were trypsinized, counted and seeded at the appropriate densities (2000–1000 cells/0.33 cm^2 well) into 96-well microtiter plates. Cells then were incubated in a humidified atmosphere at 37 °C for 24 h. Then, cells were exposed to different concentrations of compounds (0.1, 10, 100, 1000 µM) for 72 h. Then the viability of treated cells was determined using MTT technique as follow. Media were removed; cells were incubated with 200 μL of 5% MTT solution/well (Sigma Aldrich, Darmstadt, Germany) and were allowed to metabolize the dye into a colored-insoluble formazan crystal for 2 h. […] Absorbance were measured at 570 nm using a Stat Fax^R 4200 plate reader (Awareness Technology, Inc., Awareness Technology, FL, USA). […]

[9] = system: fibroblast-like fetal lung cell line (WI-38); assay: In vitro MTT cytotoxicity assay on normal WI-38 cells
Experimental: Cell Line cells were obtained from American Type Culture Collection, cells were cultured using DMEM (Invitrogen/Life Technologies, Waltham, MA, USA) supplemented with 10% FBS (Hyclone, Waltham, MA, USA), 10 μg/mL of insulin (Sigma), and 1% penicillin-streptomycin. All of the other chemicals and reagents were from Sigma, or Invitrogen. Plate cells (cells density 1.2–1.8 × 10,000 cells/well) in a volume of 100 µL complete growth medium + 100 μL of the tested compound per well in a 96-well plate for 24 h before the MTT assay.

T1 sequence (P35968 20-1356): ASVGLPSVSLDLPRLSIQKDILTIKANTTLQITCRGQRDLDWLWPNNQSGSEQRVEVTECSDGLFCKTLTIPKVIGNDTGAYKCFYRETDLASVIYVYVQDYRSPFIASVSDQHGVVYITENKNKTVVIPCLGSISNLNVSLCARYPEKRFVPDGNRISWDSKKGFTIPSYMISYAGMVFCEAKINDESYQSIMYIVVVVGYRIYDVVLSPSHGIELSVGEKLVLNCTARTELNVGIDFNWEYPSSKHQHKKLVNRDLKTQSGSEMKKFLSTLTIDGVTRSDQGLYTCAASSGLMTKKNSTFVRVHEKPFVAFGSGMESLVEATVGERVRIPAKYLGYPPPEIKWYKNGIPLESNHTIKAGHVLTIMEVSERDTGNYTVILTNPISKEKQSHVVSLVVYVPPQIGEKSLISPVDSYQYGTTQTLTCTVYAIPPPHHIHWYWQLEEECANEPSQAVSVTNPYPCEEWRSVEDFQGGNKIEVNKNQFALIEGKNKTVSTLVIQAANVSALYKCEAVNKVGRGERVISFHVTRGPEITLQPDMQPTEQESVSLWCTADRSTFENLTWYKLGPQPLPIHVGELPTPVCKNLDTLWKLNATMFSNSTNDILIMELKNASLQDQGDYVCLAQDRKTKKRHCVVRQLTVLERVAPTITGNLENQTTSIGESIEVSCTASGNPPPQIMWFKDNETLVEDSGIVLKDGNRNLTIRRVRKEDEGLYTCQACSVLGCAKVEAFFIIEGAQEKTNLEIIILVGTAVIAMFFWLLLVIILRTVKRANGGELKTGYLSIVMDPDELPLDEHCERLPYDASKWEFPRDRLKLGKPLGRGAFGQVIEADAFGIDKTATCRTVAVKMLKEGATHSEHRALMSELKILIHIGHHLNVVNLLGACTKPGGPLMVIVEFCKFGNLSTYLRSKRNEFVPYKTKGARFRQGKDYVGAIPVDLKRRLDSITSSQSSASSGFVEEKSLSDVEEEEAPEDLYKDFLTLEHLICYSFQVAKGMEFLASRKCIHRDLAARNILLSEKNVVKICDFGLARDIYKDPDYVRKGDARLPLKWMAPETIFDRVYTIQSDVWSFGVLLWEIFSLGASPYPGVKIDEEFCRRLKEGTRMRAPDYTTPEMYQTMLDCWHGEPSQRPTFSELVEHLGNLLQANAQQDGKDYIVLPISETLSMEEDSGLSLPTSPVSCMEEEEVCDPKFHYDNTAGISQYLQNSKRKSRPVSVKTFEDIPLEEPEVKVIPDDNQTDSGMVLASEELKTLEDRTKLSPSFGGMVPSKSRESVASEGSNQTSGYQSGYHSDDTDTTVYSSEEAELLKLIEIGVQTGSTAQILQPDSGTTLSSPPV

| IC50 [2] | IC50 ([3]; Homo sapiens, HepG2, MTT, 72 h exposure) | IC50 [4] | activity against VEGFR-2 (in words) ([5]; 10 µM) | inhibition at 10 µM ([5]; single concentration of 10 µM, read-out: % of VEGFR-2 Inhibition) | SMILES | inhibition percentage against VEGFR-2 [1] | anti-cancer activity against Hep G2 cell line (in words) [3] | effect on cell cycle profile (in words) ([6]; 24 h) | effect on cell cycle profile (in words) ([6]; 48 h) | annexin-V positive cells (in words) [7] | activity against the tested cell lines (in words) [8] | selectivity as anti-cancer agent (in words), from WI-38 IC50 [9] | IC50 ([9]; read-out: IC50 on WI-38 cell line, MTT, normal cell line) |
| --- | --- | --- | --- | --- | --- | --- | --- | --- | --- | --- | --- | --- | --- |
| – | – | – | – | – | COc1ccc(Nc2nc3ccc(NC(=O)c4ccccc4C(=O)O)cc3[nH]c2=O)cc1 [Compound 4] | 69% | – | – | – | – | – | – | – |
| 2.5 µM | 22 µM | 9 µM | weak activity | 7% | Cc1nc2ccccc2nc1Nc1ccc(NC(=O)Nc2ccc(Cl)cc2)cc1 [Compound VIIIc, 1-(4-Chlorophenyl)-3-(4-((3-methylquinoxalin-2-yl)amino)phenyl)urea] | – | moderate activity | increase in G1 phase | cell cycle arrest at G2/M phase boundary | increased the percentage of annexin-V positive cells | promising activity | moderate selectivity | 97.2 ± 5.66 µM |
